Bounds are passed on as bounds.

Broadly, the IC50 is the concentration that inhibits the measured activity by half.

Test [1] has as its target T1, 6-phosphofructo-2-kinase/fructose-2,6-bisphosphatase 3 (Homo sapiens, UniProt Q16875). The experiment in a line: Inhibition of iPFK2 (unknown origin) assessed as reduction in enzyme-mediated fructose-6-phosphate phosphorylation by measuring NADH absorbance pre-incubated for 10 mins before ATP/substrate addition followed by incubation for 1 hr by UV-Visible spectrometry based iPFK-2/PPI-PFK coupled enzyme assay.

Test [2] has as its target T1, 6-phosphofructo-2-kinase/fructose-2,6-bisphosphatase 3. The test is described as follows: Inhibition of iPFK2 (unknown origin) assessed as reduction in enzyme-mediated fructose-6-phosphate phosphorylation by measuring ATP consumption incubated for 3 hrs by luciferase-luciferin-coupled chemiluminescence assay.

T1 sequence (Q16875 whole entry): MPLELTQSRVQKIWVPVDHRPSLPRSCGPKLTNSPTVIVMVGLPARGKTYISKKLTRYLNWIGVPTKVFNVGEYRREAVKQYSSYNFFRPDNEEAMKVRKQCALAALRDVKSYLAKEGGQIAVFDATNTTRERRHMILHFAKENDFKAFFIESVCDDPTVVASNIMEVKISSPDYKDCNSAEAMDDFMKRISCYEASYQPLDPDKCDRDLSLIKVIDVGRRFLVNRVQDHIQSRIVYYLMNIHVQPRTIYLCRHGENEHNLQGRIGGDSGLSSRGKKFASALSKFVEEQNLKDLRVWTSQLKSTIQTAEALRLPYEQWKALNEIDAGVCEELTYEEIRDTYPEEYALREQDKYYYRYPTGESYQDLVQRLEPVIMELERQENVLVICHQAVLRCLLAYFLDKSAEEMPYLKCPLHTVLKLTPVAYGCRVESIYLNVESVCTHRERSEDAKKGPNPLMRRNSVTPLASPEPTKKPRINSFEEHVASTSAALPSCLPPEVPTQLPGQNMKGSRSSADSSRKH

On to `COc1cccc(-c2cc(NC(C)c3cccc(-c4cnn(C)c4)c3)nc(C)n2)c1F` (stereo not given), for which the figures for the IC50 in test [1] and in test [2] were greater than 1 µM and 0.5 µM, respectively.
For `CCc1coc2ccc(-c3cc(N[C@@H](C)c4cccc(Br)c4)nc(C)n3)cc12`, the concentration for half-maximal inhibition (IC50) in test [1] was 0.5 µM; in test [2], greater than 1 µM.
`Cc1cc(-c2cccc(C(C)Nc3cc(-c4ccc5ncsc5c4)nc(C)n3)c2)ccn1` (stereo not given): the IC50 in test [1] and in test [2] was 0.5 µM throughout.
Consider `Cc1nc(NC(C)c2cccc(-c3ccc(N(C)C)nc3)c2)cc(-c2ccc3ncsc3c2)n1` (stereo not given), for which the IC50 in test [1] and in test [2] was 0.5 µM each time.
With `Cc1nc(NC(C)c2cccc(-c3cccnc3F)c2)cc(-c2ccc3ncsc3c2)n1` (stereo not given), the IC50 was 0.5 µM in test [1] and greater than 1 µM in test [2].

The record behind these values is ChEMBL document CHEMBL3727358, “Inhibitors of inducible form of 6-phosphofructose-2-kinase” (2014).
